These results are taken from ChEMBL document CHEMBL1201862, “PubChem BioAssay data set” (2004).

One may read the IC50 as the concentration at which inhibition is half-maximal. The term EC50 denotes the midpoint of the concentration-response curve. In general, AC50 refers to the concentration giving half of the maximal activity seen. Usually IC90 stands for the concentration at which the effect reaches the 90% level.

The source made the active and inactive calls.

In experiment [1] the test system is HEK293. The experiment can be described thus: HEK cell cytotoxicity by LDH release, dose response, cytotoxicity control for IDE activator project, fluorescence, HEK cells (AID 588440).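 Note: cytotoxicity by LDH release measuring loss of membrane integrity.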 It is filed as functional, cell-based. To be noted: Homo sapiens.
Experiment [2] addresses T1, Insulin-degrading enzyme (Homo sapiens, UniProt P14735).
T1 sequence (P14735 whole entry): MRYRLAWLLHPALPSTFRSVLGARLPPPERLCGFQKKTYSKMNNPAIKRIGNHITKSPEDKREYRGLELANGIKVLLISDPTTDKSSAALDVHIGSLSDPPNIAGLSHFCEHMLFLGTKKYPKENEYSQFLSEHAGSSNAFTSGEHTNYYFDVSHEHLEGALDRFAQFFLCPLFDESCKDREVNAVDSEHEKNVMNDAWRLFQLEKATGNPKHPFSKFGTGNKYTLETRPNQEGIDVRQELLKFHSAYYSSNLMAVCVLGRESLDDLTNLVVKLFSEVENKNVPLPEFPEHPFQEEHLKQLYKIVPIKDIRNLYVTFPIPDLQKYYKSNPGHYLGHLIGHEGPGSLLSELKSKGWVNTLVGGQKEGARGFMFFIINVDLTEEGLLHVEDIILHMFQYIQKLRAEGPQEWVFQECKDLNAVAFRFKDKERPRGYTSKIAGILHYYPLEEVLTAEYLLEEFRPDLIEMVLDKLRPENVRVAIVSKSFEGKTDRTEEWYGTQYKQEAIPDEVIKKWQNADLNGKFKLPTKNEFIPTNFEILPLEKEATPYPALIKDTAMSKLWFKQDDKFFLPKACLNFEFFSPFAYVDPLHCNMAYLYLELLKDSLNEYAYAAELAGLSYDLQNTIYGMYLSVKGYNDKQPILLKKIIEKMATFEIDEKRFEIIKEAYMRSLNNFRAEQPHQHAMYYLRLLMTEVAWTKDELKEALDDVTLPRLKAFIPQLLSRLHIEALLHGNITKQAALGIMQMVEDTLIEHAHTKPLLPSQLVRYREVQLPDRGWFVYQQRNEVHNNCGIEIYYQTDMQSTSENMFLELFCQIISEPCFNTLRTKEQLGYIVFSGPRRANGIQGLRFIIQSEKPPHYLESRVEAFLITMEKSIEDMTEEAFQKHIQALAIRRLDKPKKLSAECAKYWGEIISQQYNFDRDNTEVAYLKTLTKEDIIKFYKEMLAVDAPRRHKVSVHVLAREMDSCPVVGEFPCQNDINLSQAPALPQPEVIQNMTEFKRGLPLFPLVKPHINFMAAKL
The experiment can be described thus: activators of recombinant IDE enzyme, dose response, counter-screen for IDE activator project, biochemical, fluorescence polarization (AID 588681). (Counterscreens check selectivity or assay interference.)

Experiment [3] deals with T1, Insulin-degrading enzyme. As to the kind of experiment: activators of endogenous IDE in HEK cells, dose response, cell-based, fluorescence polarization (AID 588439). It is filed as functional. In general terms: Polarisation of emitted light reports the rotation of a fluorescent probe.
Experiment [4] concerns HEK293. As to the kind of experiment: optical interference in Abeta FP readout, dose response, artefact control for IDE activator project, biochemical, fluorescence polarization (AID 588442). To be noted: Homo sapiens. It is filed as functional, cell-based.
Experiment [5] addresses T2, Ubiquitin-conjugating enzyme E2 N (Homo sapiens, UniProt P61088).
T2 sequence (P61088 whole entry): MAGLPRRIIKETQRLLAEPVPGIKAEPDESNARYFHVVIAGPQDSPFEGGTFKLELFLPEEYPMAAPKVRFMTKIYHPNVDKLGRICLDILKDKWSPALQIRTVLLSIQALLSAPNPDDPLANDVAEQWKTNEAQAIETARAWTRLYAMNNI
Format: functional.

The nature of experiment [6]: Luminescence Cell-Based Dose Retest to Confirm Inhibitors of Cancer Stem Cells. [Related pubchem assays (depositor defined):AID2717, AID2721]. It is filed as functional. The note with it: Homo sapiens.
Experiment [7] is described as follows: MDA-MB-231 cell growth inhibition, dose response, cytotoxicity control for RAD54 inhibitor project, CellTiter-Glo luminescence, cherry-pick (AID 651692). Format: functional, cell-based. A general note: In ATP-based viability assays light output follows the ATP content of the culture.
Experiment [8] is described as follows: microbe, parasite or virus in culture. Format: functional. To be noted: Mycobacterium tuberculosis.
For experiment [9], the target named is Glycogen synthase kinase-3 alpha (Homo sapiens, UniProt P49840). As to the kind of experiment: Inhibition of Human GSK-3 alpha Activity Measured in Biochemical System Using Microfluidics - 2063-06_Inhibitor_Dose_DryPowder_Activity_Set2. [Related pubchem assays (depositor defined):AID2709].
Chain of Glycogen synthase kinase-3 alpha (P49840 whole entry): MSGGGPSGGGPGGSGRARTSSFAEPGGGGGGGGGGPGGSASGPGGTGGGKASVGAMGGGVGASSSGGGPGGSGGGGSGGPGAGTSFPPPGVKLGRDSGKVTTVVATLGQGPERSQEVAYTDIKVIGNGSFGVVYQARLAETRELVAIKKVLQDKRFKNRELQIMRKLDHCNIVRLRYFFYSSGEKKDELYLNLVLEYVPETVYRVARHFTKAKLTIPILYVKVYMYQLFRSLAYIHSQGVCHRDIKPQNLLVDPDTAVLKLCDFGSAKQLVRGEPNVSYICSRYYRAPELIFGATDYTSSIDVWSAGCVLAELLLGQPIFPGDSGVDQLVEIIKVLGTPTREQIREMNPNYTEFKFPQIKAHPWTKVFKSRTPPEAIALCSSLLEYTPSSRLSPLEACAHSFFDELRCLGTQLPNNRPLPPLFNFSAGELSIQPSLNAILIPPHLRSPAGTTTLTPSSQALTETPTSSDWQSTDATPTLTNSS
The target in experiment [10] is Glycogen synthase kinase-3 beta (Homo sapiens, UniProt P49841). As to the kind of experiment: Inhibition of Human GSK-3 beta Activity Measured in Biochemical System Using Microfluidics - 2063-05_Inhibitor_Dose_DryPowder_Activity_Set2. [Related pubchem assays (depositor defined):AID2709].
Chain of Glycogen synthase kinase-3 beta (P49841 whole entry): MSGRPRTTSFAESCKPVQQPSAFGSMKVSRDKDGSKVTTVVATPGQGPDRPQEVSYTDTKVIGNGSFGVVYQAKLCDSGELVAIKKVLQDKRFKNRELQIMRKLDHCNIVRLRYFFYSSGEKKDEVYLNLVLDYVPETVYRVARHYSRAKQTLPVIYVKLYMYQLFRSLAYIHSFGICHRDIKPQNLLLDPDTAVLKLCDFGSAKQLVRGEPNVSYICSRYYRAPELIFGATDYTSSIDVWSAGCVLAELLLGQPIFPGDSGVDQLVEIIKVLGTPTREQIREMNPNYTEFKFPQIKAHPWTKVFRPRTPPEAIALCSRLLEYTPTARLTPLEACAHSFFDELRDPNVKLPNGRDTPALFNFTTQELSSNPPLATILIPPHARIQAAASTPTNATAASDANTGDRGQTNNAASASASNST
Experiment [11] in a line: inhibitors of non-replicating M. tuberculosis, dose response, luciferase, dry powder (AID 651619). Format: functional. The note with it: Mycobacterium tuberculosis.
The nature of experiment [12]: inhibitors of non-replicating M. tuberculosis, dose response, luciferase, dry powder (AID 651620). To be noted: Mycobacterium tuberculosis. It is filed as functional.

On to `O=C(NCC1CC1)c1onc(CSc2ccc(F)c(F)c2)c1C(=O)NCC1CC1`, for which, in experiment [1], the IC50 was > 89.3 µM (inactive). Further, the EC50 in [2], in experiment [3] and in experiment [4] was > 54.7 µM (inactive) each time.
For the compound `Cc1ccc(C)c(N2CCN(C(=S)Nc3ccc4nc(N5CCN(C)CC5)cc(C)c4c3)CC2)c1`, the IC50 in experiment [1] was 18 µM (inactive); in experiment [5] it was > 20 µM (inactive). Also, the results for the AC50 in [6] and in experiment [7] were 13.3 µM (active) and 34.8 µM (active), respectively. Also, the CC50 in experiment [8] was 17.1 µM (active). Moreover, the EC50 in experiment [2] is > 54.7 µM (inactive); in experiment [3], > 54.7 µM (inactive); in experiment [4], > 55.9 µM (inactive).
Regarding `Nc1nc(NCCCN2CCOCC2)nc(Nc2cccc(Cl)c2)c1[N+](=O)[O-]`, the AC50 was 0.429 µM (active) in experiment [9] and 0.253 µM (active) in experiment [10].
Consider `Fc1ccc(CSc2nnc(-c3ccncc3)o2)cc1`, for which the IC90 in [11] and in [12] was 4 µM (active) throughout. For the same compound, the AC50 in experiment [9] is 3.37 µM (active); in experiment [10] it was 0.578 µM (active).
